# Data published in publication PMC8800018, “Discovery of novel selective PI3Kγ inhibitors through combining machine learning-based virtual screening with multiple protein structures and bio-evaluation” (Journal of Advanced Research, 2021).
# Read-outs that look alike come from different tables or passages of the source.
# Legend:
# PI3Kγ = PI3Kγ (Homo sapiens, UniProt P48736); assay: ADP-Glo cell-free PI3K kinase activity assay; settings: compounds 10 μM, initial screening, Fig. 3A
# Procedure: (§6) The PI3K inhibitory activities of these pro-hits were all determined by ADP-Glo assay (Promega) [39]. […] 2.5 μL ATP/substrate mixture was added into the wells to initiate kinase reactions and incubated at room temperature for 1 h. Then, the reactions were stopped by addition of 5 μL ADP-Glo reagent and incubation for 120 min at room temperature. Before reading the luminescence signals of each well, 10 μL kinase detection buffer was added and incubated for 30 min at room temperature.
# PI3Kδ = PI3Kδ (Homo sapiens, UniProt O00329); assay: ADP-Glo cell-free PI3K kinase activity assay
# Procedure: as §6
# K562 cells [1] = assay: MTT cell proliferation assay; type: cell-based, human
# Text: (§1) The human cancer lines, MDA-MB-231, Patu8988, HepG2, A2780, LOVO, H1299, A549, HCT-8, SW480, 3AO, and MGC-803 were saved by the lab of Dr. Jian Jin, Jiangnan University. MCF-7 was purchased from the American Type Culture Collection (ATCC). Human malignant blood tumor cells, HL-60, U266, OPM2, OCI-My5, RPMI-8226, NCI-H929, Jurkat, LP-1, CCRF-CEM, K562, and U937, were provided by Dr. Xinliang Mao, Soochow University. MDA-MB-231, Patu8988, HepG2, A2780, LOVO, H1299, A549, HCT-8, SW480, 3AO, MGC-803, and MCF-7 were cultured in Dulbecco’s Modified Eagle Medium (DMEM, Gibco); U266, RPMI-8226, OPM2, OCI-My5, NCI-H929 and LP-1 were cultured in Iscove’s Modified Dulbecco’s Medium (IMDM. Gibco). The rest of cell lines were cultured in RPMI-1640 medium (Gibco). All mediums were supplemented with 10% fetal bovine serum (FBS, Gibco), 100 μg/mL penicillin and streptomycin, and all cells were maintained in a cell incubator with 5% CO2 at 37℃.
# (§2) All cells were incubated in 96-well culture plates with 100 μL medium in each well. The concentration of solid cells (MDA-MB-231, MCF-7, Patu8988, HepG2, A2780, 3AO, LOVO, HCT-8, SW480, A549, H1299, and MGC-803) was 3,000/well and the concentration of suspension cells (HL-60, U266, OPM2, OCI-My5, RPMI-8226, NCI-H929, Jurkat, LP-1, CCRF-CEM, K562, and U937) was 7,500/well. […] The viability of the cancer cells was evaluated by Thiazolyl Blue (MTT) assay. 10 μL of 5 mg/mL MTT was added to each well and the plate was incubated at 37℃ for 4 h. Then, 100 μL MTT buffer was added to each well. After incubating the plate overnight, the absorbance of each well was measured at 550 nm by a microplate reader. All data were normalized to control groups (5 μL DMSO) and converted into the percent of living cells. All results were represented as the mean and standard deviation (SD) of the three independent measurements.
# RPMI-8226 cells [2] = assay: MTT cell proliferation assay; type: cell-based, human; settings: 72 h, Fig. 3C, compared with IPI-145
# Text: as §1, §2
# U937 cells = assay: MTT cell proliferation assay; type: cell-based, human; settings: 72 h, Fig. 3C, compared with IPI-145
# Text: as §1, §2
# [3] = test system: hematologic tumor cell lines (HL-60, Jurkat, CCRF-CEM, K562, OPM2, OCI-My5, LP-1, RPMI-8226, U937); assay: MTT cell proliferation assay, hematologic tumor cell lines, gradient of concentrations; type: cell-based, human; settings: Fig. 3D
# Text: as §1
# All cells were incubated in 96-well culture plates with 100 μL medium in each well. […] The viability of the cancer cells was evaluated by Thiazolyl Blue (MTT) assay. […] After incubating the plate overnight, the absorbance of each well was measured at 550 nm by a microplate reader. […]
# [4] = test system: AKT phosphorylation (Thr308, Ser473) in K562 cells; assay: Western Blot of PI3K/AKT signaling; type: cell-based, human
# Procedure: (§3) K562 and RPMI-8226 cells were cultured in 6-well plates with 1 × 10^6 cells per well and then treated with various concentrations of JN-KI3: 0, 2.5, 5, 10, and 20 μM. After 24 h, the cells of each well were collected and washed by PBS 3 times. The sedimentary cells were then incubated in an ice bath with 80 μL RIPA lysis buffer (Beyotime) for 20 min and then centrifuged at 12,000 rpm for 20 min. The supernatant was collected and its total concentration of protein was quantified using the BCA protein assay kit (Biosharp). Loading buffer (5 ×) was added to all protein samples prepared for Western Blot assays and boiled at 100℃ for 5 min.
# (§4) The inhibitory situation of PI3K/AKT (Protein kinase B) signaling pathway was then determined by Western Blot assays. The SDS-polyacrylamide gel electrophoresis (PAGE) was used to separate the proteins. All protein samples and Protein Marker (Proteintech) were loaded onto an acrylamide gel and ran for 30 min at 80 V within the staking gel and for 1 h at 100 V with the separating gel. Then, the protein was electro-transferred onto an NC membrane at 100 V for 1 h. After that, the membrane was blocked in 5% skim milk diluted in TBST (1 ×) for 2 h and then the membrane was incubated with relevant primary antibody overnight at 4℃: Phospho-AKT (Thr308) (1 : 1000, cat# 13038 T; Cell Signaling Technology), Phospho-AKT (Ser473) (1: 1000, cat# 4060 T; Cell Signaling Technology), AKT (pan) (1: 1000, cat# 4691 T; Cell Signaling Technology), caspase-3 (1: 1000, cat# sc-56053; Santa Cruz Biotechnology), PARP (1: 1000, cat# 9542S; Cell Signaling Technology). GAPDH (1: 5000, cat#60004–1-Ig; Santa Cruz Biotechnology), After 10-min washing in TBST (1 ×) for 3 times, the membrane was incubated with relevant secondary antibody at room temperature on a shaker for 1 h. And the membrane was washed for 4 times in TBST again before being imaged.
# [5] = test system: AKT phosphorylation (Thr308, Ser473) in RPMI-8226 cells; assay: Western Blot of PI3K/AKT signaling; type: cell-based, human
# Procedure: as §3, §4
# [6] = test system: PARP and caspase-3 cleavage in K562 cells; assay: Western Blot of apoptosis biomarkers; type: cell-based, human
# Procedure: as §3, §4
# [7] = test system: PARP and caspase-3 cleavage in RPMI-8226 cells; assay: Western Blot of apoptosis biomarkers; type: cell-based, human
# Procedure: as §3, §4
# K562 cells [8] = assay: Annexin V-FITC/PI flow cytometry apoptosis assay; type: cell-based, human; settings: 24 h
# Procedure: (§5) After being treated with JN-KI3 for 24 h, K562 and RPMI-8226 were stained with Annexin V-FITC/PI detection kit (Beyotime) and the apoptosis of the cells were detected using a flow cytometer (FACSCalibur, BD) following the instructions.
# RPMI-8226 cells [9] = assay: Annexin V-FITC/PI flow cytometry apoptosis assay; type: cell-based, human; settings: RPMI-8226, 10 μM, 24 h
# Procedure: as §5
# PI3Kα = PI3Kα (Homo sapiens, UniProt P42336); assay: ADP-Glo cell-free PI3K kinase activity assay
# Procedure: as §6
# PI3Kβ = PI3Kβ (Homo sapiens, UniProt P42338); assay: ADP-Glo cell-free PI3K kinase activity assay
# Chain of PI3Kβ (P42338 whole entry): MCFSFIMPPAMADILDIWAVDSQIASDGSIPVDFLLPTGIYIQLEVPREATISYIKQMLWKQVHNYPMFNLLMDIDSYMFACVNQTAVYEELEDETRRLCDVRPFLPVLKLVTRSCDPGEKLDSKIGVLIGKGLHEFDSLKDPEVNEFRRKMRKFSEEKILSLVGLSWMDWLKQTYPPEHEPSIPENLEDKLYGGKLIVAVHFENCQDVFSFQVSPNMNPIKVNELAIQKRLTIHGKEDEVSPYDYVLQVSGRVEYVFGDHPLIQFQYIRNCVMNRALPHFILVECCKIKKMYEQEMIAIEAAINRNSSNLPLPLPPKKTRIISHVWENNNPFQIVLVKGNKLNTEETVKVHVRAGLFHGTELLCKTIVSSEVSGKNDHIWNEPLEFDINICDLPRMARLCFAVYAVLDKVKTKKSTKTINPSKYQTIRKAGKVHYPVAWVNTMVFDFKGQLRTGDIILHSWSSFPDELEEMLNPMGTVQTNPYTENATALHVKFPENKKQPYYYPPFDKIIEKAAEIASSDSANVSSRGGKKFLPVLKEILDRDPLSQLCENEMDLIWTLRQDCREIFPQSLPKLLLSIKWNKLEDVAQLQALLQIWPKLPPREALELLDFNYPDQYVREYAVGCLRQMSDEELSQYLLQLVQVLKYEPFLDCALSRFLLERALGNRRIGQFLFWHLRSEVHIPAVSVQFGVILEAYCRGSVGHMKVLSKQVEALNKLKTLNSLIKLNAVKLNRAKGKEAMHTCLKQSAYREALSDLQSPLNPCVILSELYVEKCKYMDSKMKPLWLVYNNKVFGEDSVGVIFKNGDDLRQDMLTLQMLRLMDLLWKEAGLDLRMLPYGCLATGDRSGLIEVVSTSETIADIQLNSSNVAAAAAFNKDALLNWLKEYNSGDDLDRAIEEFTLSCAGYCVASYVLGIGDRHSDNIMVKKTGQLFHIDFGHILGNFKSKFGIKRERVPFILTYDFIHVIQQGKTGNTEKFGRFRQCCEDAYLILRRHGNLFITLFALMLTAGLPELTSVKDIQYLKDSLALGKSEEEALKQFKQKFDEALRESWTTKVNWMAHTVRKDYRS
# Chain of PI3Kβ (P27986 whole entry partner): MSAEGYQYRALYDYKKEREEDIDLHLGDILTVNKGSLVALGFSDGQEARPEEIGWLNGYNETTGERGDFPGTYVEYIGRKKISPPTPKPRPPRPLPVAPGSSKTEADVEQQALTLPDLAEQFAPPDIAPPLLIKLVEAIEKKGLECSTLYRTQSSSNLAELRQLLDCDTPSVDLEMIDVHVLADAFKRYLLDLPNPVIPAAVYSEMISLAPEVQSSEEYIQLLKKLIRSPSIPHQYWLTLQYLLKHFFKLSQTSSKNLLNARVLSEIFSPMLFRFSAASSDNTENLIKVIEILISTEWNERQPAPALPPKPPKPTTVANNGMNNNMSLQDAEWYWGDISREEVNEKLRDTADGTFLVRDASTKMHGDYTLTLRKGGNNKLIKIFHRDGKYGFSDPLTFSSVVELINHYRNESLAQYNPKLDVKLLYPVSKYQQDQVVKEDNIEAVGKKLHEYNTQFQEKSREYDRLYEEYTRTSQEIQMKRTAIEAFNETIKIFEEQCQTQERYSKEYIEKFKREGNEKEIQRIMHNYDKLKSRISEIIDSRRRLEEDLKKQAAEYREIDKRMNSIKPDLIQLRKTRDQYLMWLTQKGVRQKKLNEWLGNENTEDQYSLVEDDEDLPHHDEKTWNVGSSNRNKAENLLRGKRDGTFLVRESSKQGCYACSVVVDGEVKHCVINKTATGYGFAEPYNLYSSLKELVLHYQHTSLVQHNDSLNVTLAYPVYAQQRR
# Procedure: as §6
# Chain of PI3Kδ (O00329 whole entry): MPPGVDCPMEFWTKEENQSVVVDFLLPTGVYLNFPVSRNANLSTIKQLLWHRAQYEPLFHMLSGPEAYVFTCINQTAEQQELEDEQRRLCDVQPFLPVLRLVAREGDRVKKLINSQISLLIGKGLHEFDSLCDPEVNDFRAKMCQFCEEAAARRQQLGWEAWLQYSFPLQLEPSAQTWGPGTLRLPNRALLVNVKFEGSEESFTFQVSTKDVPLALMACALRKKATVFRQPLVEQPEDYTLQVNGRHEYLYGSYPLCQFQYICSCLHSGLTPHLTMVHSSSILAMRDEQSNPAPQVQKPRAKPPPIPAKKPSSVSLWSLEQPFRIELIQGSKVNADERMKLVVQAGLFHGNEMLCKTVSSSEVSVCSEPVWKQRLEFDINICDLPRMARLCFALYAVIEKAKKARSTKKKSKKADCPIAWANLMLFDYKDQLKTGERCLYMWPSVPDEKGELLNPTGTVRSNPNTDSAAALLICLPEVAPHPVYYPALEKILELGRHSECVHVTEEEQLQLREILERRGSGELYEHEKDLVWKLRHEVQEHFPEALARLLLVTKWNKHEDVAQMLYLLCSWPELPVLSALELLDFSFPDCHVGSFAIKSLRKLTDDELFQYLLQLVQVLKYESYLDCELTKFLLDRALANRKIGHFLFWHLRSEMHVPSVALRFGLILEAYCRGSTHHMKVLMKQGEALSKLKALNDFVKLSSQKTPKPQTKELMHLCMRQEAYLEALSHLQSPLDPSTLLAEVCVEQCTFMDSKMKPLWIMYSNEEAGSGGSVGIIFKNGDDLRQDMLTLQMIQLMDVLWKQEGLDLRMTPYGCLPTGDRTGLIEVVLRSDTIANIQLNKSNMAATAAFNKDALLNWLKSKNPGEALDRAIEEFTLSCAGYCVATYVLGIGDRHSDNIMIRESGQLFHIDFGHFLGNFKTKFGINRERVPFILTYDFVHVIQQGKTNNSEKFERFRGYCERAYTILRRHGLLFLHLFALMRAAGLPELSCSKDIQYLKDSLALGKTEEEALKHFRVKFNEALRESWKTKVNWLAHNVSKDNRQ
# Chain of PI3Kδ (P27986 whole entry partner): as the sequence (P27986 whole entry partner) above
# Chain of PI3Kα (P42336 whole entry): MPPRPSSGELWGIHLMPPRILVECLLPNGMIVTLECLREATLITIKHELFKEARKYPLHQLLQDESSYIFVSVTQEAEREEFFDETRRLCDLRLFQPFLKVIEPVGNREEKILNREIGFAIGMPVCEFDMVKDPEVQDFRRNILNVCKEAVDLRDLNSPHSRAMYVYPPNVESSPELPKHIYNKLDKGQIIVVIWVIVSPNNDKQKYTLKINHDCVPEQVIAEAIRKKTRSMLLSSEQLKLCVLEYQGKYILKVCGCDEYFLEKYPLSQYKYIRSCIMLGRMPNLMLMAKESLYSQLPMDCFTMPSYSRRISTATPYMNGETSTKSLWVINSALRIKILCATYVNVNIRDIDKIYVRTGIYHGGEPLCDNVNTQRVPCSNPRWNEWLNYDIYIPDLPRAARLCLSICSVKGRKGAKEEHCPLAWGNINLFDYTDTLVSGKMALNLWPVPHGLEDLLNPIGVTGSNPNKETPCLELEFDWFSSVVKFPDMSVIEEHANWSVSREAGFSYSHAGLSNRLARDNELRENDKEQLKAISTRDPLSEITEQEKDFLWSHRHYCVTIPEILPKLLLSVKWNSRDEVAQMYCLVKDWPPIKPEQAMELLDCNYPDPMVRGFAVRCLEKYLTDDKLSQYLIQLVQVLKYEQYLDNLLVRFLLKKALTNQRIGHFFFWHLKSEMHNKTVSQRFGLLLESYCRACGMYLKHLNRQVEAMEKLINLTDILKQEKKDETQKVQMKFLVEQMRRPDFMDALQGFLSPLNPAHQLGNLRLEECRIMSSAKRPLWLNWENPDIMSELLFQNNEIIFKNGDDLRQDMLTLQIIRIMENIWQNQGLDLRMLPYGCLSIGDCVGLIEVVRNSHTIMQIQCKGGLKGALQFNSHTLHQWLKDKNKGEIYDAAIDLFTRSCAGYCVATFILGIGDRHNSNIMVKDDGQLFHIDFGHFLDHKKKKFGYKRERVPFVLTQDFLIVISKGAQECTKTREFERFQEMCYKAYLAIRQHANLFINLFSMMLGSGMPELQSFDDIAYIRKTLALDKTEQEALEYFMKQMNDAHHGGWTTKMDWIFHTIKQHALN
# Chain of PI3Kα (P27986 whole entry partner): as the sequence (P27986 whole entry partner) above
# Chain of PI3Kγ (P48736 whole entry): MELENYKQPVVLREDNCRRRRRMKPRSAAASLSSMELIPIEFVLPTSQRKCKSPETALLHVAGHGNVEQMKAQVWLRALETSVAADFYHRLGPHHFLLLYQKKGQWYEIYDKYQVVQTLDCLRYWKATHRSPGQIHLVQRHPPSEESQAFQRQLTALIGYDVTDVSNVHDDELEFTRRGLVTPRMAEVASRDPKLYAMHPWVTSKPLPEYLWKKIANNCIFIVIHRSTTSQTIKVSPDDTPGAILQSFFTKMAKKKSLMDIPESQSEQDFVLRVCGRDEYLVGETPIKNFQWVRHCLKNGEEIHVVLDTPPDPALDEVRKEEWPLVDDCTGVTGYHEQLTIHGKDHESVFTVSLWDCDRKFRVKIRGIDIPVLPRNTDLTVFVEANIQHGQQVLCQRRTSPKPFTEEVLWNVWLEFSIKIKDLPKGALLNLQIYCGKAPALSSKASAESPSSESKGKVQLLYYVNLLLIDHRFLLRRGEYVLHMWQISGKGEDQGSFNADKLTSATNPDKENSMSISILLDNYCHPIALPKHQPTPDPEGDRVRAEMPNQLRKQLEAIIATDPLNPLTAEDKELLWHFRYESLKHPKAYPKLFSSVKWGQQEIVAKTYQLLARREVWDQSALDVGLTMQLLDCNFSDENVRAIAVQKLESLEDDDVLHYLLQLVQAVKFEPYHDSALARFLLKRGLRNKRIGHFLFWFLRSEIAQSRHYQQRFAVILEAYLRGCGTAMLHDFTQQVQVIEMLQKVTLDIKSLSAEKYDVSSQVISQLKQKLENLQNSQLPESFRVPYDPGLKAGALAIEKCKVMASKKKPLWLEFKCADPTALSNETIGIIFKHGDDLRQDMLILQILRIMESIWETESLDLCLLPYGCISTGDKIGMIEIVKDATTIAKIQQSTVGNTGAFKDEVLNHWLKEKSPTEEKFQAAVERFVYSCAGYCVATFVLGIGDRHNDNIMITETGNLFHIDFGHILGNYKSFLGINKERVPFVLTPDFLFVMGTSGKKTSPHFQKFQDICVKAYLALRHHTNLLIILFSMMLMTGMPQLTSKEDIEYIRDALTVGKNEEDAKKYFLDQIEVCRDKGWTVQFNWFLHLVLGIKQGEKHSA
compound,measurement,setting,value
C[C@H](Nc1ncnc2nc[nH]c12)c1cc2cccc(Cl)c2c(=O)n1-c1ccccc1 [IPI-145],PI3Kγ inhibitory percent,PI3Kγ,strongest inhibitory activity
"O=c1cc(N2CCOCC2)oc2c(-c3ccccc3)cccc12 [LY294002, reference compound]",IC50,PI3Kδ,0.78 µM
CC(=O)c1c(C)n(-c2ccc(C)cc2)c2ccc(OCC(O)CNCc3ccc(Cl)cc3)cc12 (centres unmarked) [JN-KI3],"anti-proliferative activity, K562","K562 cells [1]; 72 h, MTT, Fig. 3B/3C",stronger than IPI-145
same,sensitivity of K562 proliferation,"K562 cells [1]; gradient of concentrations, low concentration, Fig. 3D",significant sensitivity
same,"anti-proliferative activity, RPMI-8226",RPMI-8226 cells [2],stronger than IPI-145
same,"anti-proliferative activity, U937",U937 cells,stronger than IPI-145
same,proliferation of hematologic tumor cell lines,[3],decreased in a concentration-dependent manner
same,"phosphorylation level of AKT at both sites, time course","[4]; K562, 20 μM, 0 to 24 h",significantly inhibited
same,"t-AKT, time course","[4]; K562, 20 μM, 0 to 24 h",not markedly affected
same,AKT phosphorylation at Thr308 and Ser473,"[4]; K562, increasing concentration (2.5-20 μM), 24 h, inhibition even at 2.5 μM",markedly decreased
same,expression of total AKT (t-AKT),"[4]; K562, increasing concentration, 24 h",not affected
same,"phosphorylation level of AKT at both sites, time course","[5]; RPMI-8226, 20 μM, 0 to 24 h",significantly inhibited
same,"t-AKT, time course","[5]; RPMI-8226, 20 μM, 0 to 24 h",not markedly affected
same,AKT phosphorylation at Thr308 and Ser473,"[5]; RPMI-8226, increasing concentration (2.5-20 μM), 24 h, inhibition even at 2.5 μM",markedly decreased
same,expression of total AKT (t-AKT),"[5]; RPMI-8226, increasing concentration, 24 h",not affected
same,"cleavage level of Caspase-3 and PARP, time course","[6]; K562, 20 μM, after 6 h",significantly increased
same,cleavage levels of PARP and caspase-3,"[6]; K562, increasing concentrations, 24 h",obviously increased
same,"cleavage level of Caspase-3 and PARP, time course","[7]; RPMI-8226, 20 μM, after 6 h",significantly increased
same,cleavage levels of PARP and caspase-3,"[7]; RPMI-8226, increasing concentrations, 24 h",obviously increased
same,cells occurring apoptosis,"K562 cells [8]; K562, 2.5 μM",41.2%
same,cells occurring apoptosis,"K562 cells [8]; K562, 5 μM",47.5%
same,cells occurring apoptosis,"K562 cells [8]; K562, 10 μM",65.7%
same,cells occurring apoptosis,RPMI-8226 cells [9],about 20.43%
same,IC50,"PI3Kα; read-out: Cell-free inhibitory IC50 PI3Kα, ATP 25 μM, average of triple tests",> 20 µM
same,IC50,"PI3Kα; read-out: IC50 PI3Kα, Table 4",> 20 µM
same,IC50,"PI3Kβ; read-out: Cell-free inhibitory IC50 PI3Kβ, ATP 25 μM, average of triple tests",> 20 µM
same,IC50,"PI3Kβ; read-out: IC50 PI3Kβ, Table 4",> 20 µM
same,IC50,"PI3Kδ; read-out: Cell-free inhibitory IC50 PI3Kδ, ATP 25 μM, average of triple tests",> 20 µM
same,IC50,"PI3Kδ; read-out: IC50 PI3Kδ, Table 4",> 20 µM
